Patent US12275721B2, “Indazole carboxamides as kinase inhibitors” (BRISTOL-MYERS SQUIBB COMPANY, priority 2019, dated 2025)
pIC50: −log10 of the molar value.

What was measured:
[1] = target: T1, His-GST-TVMV-hRIPK1(1-324) (Homo sapiens, UniProt Q13546); assay: RIPK1 HTRF Binding Assay; conditions: HTRF probe displacement, 1 h at rt
T1 construct: 1 nM His-GST-TVMV-hRIPK1(1-324) in FRET Buffer; made in house; host or cells: Spodoptera frugiperda (Sf9) insect cells, baculovirus (Bac-to-Bac)
T1 sequence (Q13546 1-324): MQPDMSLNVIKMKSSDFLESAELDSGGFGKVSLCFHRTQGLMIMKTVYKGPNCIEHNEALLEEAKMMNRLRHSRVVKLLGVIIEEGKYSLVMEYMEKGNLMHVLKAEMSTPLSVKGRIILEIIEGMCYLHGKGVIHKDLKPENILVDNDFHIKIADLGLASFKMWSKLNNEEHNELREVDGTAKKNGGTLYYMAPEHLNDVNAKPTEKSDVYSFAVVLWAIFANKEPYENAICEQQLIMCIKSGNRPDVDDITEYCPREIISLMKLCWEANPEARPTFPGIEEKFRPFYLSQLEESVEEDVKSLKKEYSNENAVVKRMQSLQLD
Protocol: A solution was prepared containing 0.2 nM Anti GST-Tb (Cisbio, 61GSTTLB), 90.6 nM probe and 1 nM His-GST-TVMV-hRIPK1(1-324) in FRET Buffer (20 mM HEPES, 10 mM MgCl2, 0.015% Brij-35, 4 mM DTT, 0.05 mg/mL BSA). Using Formulatrix Tempest, the detection antibody/enzyme/probe solution ([…]) was dispensed into wells of a 1536 plate (Black Low Binding Polystyrene 1536 Plate (Corning, 3724)) containing 10 nL of compounds of interest at appropriate concentration in DMSO. The plate was incubated at rt for 1 h. FRET was measured using the EnVision plate reader (Excitation: 340 nm, Emission: 520 nm/[…]). Total signal (0% inhibition) was calculated from wells containing 10 nL DMSO only.
Cloning and Baculovirus Expression of RIPK1 Construct
The coding region of human RIPK1(1-324) flanked by NdeI site at 5′ end and stop codon TGA and XhoI site at 3′ end was codon optimized and gene synthesized at GenScript USA Inc. (Piscataway, NJ) and subcloned into a modified pFastBac1 vector (Invitrogen, Carlsbad, CA) with N-terminal His-GST-TVMV tag, to generate His-GST TVMV-hRIPK1(1-324)-pFB. The fidelity of the synthetic fragment was confirmed by sequencing. Baculovirus was generated for the construct using the Bac-to-Bac baculovirus expression system (Invitrogen) according to the manufacturer's protocol. Briefly, recombinant bacmid was isolated from transformed DH10Bac E. coli competent cells 20 (Invitrogen) and used to transfect Spodoptera frugiperda (Sf9) insect cells (Invitrogen). Baculovirus was harvested 72 hours post transfection and a virus stock was prepared by infecting fresh Sf9 cells at a 1/1000 (v/v) ratio for 66 hours. For large scale protein production, Sf9 cells (Expression System, Davis, CA) grown in ESF921 insect medium (Expression System) at 2×10^6 cells/ml were infected with virus stock at a 1/100 (v/v) ratio for 66 hours. The production was carried out either at a 10 L scale in a 22 L cellbag (GE Healthcare Bioscience, Pittsburgh, PA) or at a 20 L scale in a 50 L cellbag using WAVE-Bioreactor System 20/50 (GE Healthcare Bioscience). The infected cells were harvested by centrifugation at 2000 rpm for 20 min at 4° C. in a SORVALL® RC12BP centrifuge. The cell pellets was stored at −70° C. before protein was purified.
Purification of His-GST-TVMV-hRIPK1(1-324)
RIPK1 containing cell paste was resuspended in 50 mM Tris pH 7.5, 150 mM NaCl, 10 mM imidazole, 5% glycerol, 5 mM MgSO4, 1 mM TCEP, 25 U/ml Benzonase, and Complete Protease Inhibitor tablets (1/50 ml, Roche Diagnostics, Indianapolis, IN). The cells were lysed by nitrogen cavitation using an unstirred pressure vessel @ 525 PSI (Parr Instrument Company, Moline, IL). The suspension was clarified by centrifugation at 136,000×g for 40 min, at 4° C. The lysate was decanted from the pellet and passed through a 5 ml NiNTA Superflow cartridge (Qiagen, Valencia, CA) using an AKTA Pure (GE Healthcare). Column was eluted with 10 CV linear gradient into 50 mM Tris 7.5, 150 mM NaCl, 500 mM imidazole, 5% glycerol, 1 mM TCEP. Peak fractions were pooled and loaded directly onto 5 ml GSTrap 4B column (GE Healthcare). Column was washed with 50 mM Tris 7.0, 150 mM NaCl, […], 1 mM DTT and eluted in 10 CV linear gradient into 50 mM Tris 8.0, 150 mM NaCl, 20 mM reduced glutathione, 50% glycerol, 1 mM DTT. Fractions identified by SDS-PAGE as containing RIPK1 were pooled and concentrated using 30 kDa MWCO spin concentrators (Amicon Ultra-15, Millipore, Billerica, MA) and loaded onto a HiLoad 26/600 Superdex 200 column (GE Healthcare) equilibrated in 25 mM Tris 7.5, 150 mM NaCl, 2 mM TCEP, […]. The RTPK1 protein eluted as a dimer off the SEC column. The yield was ˜8 mg/L with a purity […] as determined by Coomassie stain SDS-PAGE gel analysis. […] Protein was aliquoted and stored at −80° C. Using these assays, the IC50 values of the following compounds were determined.

[2] = tested on: MLKL phosphorylation in HT29-L23 human colorectal adenocarcinoma cells; assay: MLKL Phosphorylation High-Content Assay; type: cell-based; conditions: Homo sapiens, necroptosis induced with TNFα, SMAC mimetic and Z-VAD, 6 h, read-out: pMLKL (IC50)
Protocol: MLKL Phosphorylation High-Content Assay
HT29-L23 human colorectal adenocarcinoma cells were maintained in RPMI 1640 medium containing 10% heat-inactivated FBS, 1% Penicillin-Streptomycin and 10 mM HEPES. Cells were seeded at 2,000 cells/well in 384 well tissue culture-treated microplates (Greiner #781090-3B) and incubated at 37° C. (5% CO2/95% O2) for 2 d. On the day of the assay, the cells were treated with test compounds at final concentrations of 6.25 to 0.106 μM for 30 min at 37° C. (5% CO2/95% O2). Necroptopsis was induced using a mixture of human TNFα (35 ng/mL) (Peprotech #300-01A), SMAC mimetic (from US 2015/0322111 A1) (700 nM) and Z-VAD (140 nM) (BD pharmingen #51-6936). Following 6 h incubation at 37° C. (5% CO2/95% O2), the cells were fixed with 4% formaldehyde (ACROS 11969-0010) for 15 min at rt, then permeabilized with phosphate buffered saline (PBS) containing 0.2% Triton-X-100 for 10 min. MLKL phosphorylation was detected using anti-MLKL (phospho S358) antibody (Abcam #ab187091) (1:1000 dilution in Blocking Buffer [PBS supplemented with 0.1% BSA]) with ON incubation at 4° C. After washing three times in PBS, goat anti-rabbit Alexa-488 (1:1000 dilution) (Life Technologies, A1 1008) and Hoechst 33342 (Life Technologies, H3570) (1:2000 dilution) in Blocking Buffer were added for 1 h at rt. Following another three cycles of washes in PBS, the microplates were sealed, and cellular images were acquired in the Cellomics ArrayScan VTI high-content imager equipped with an X1 camera. Fluorescent images were taken using a 10× objective and the 386-23 BGRFRN_BGRFRN and 485-20 BGRFRN_BGRFRN filter sets, for nuclei and MLKL phosphorylation, respectively. The image sets were analyzed using the Compartmental Analysis Bioapplication software (Cellomics). The level of MLKL phosphorylation was quantified as MEAN_CircRingAvglntenRatio. The maximal inhibitory response was defined by the activity induced by Necls (CAS #: 852391-15-2, 6.25 μm). The IC50 value was defined as the concentration of compound that produces 50% of the maximal inhibition. The data were fitted using the 4-parameter logistic equation to calculate the IC50 and Ymax values.

SMILES	pIC50 [1]	pIC50 [2]
CNC(=O)c1n[nH]c2cc(-c3nc(C(=O)NCCC(C)c4ccccc4)c(C)n3C)ccc12 (stereo not shown) [Example 32, 6-(1,5-dimethyl-4-((3-phenylbutyl)carbamoyl)-1H-imidazol-2-yl)-N-methyl-1H-indazole-3-carboxamide]	6.64	6.34
CNC(=O)c1n[nH]c2cc(-c3csc(C(=O)NCCC(C)c4ccccc4)c3)ccc12 (stereo not shown) [Example 2, N-methyl-6-(5-((3-phenylbutyl)carbamoyl)thiophen-3-yl)-1H-indazole-3-carboxamide]	8.22	8.09
CNC(=O)c1n[nH]c2cc(-c3nc(C(=O)NCC[C@H](O)c4ccc(Cl)cc4)c(C)n3C)ccc12 [Example 34, (S)-6-(4-((3-(4-chlorophenyl)-3-hydroxypropyl)carbamoyl)-1,5-dimethyl-1H-imidazol-2-yl)-N-methyl-1H-indazole-3-carboxamide]	6.12	5.77
CNC(=O)c1n[nH]c2cc(-c3csc(C(=O)NCc4cc(OC(F)(F)F)ccc4F)c3)ccc12 [Example 1, 6-(5-((2-fluoro-5-(trifluoromethoxy)benzyl)carbamoyl)thiophen-3-yl)-N-methyl-1H-indazole-3-carboxamide]	8.17	7.68
CNC(=O)c1n[nH]c2cc(-c3ncc(C(=O)NCCC(C)c4ccccc4)s3)ccc12 (stereo not shown) [Example 24, 2-(3-(methylcarbamoyl)-1H-indazol-6-yl)-N-(3-phenylbutyl)thiazole-5-carboxamide]	6.55	6.15
CNC(=O)c1n[nH]c2cc(-c3nc(C(=O)NCc4cc(C(F)(F)F)ccc4F)c(C)n3C)ccc12 [Example 35, 6-(4-((2-fluoro-5-(trifluoromethyl)benzyl)carbamoyl)-1,5-dimethyl-1H-imidazol-2-yl)-N-methyl-1H-indazole-3-carboxamide]	6.70	6.05
CNC(=O)c1n[nH]c2cc(-c3csc(C(=O)NCC[C@@H](O)c4ccc(Cl)cc4)c3)ccc12 [Example 3, (R)-6-(5-((3-(4-chlorophenyl)-3-hydroxypropyl)carbamoyl)thiophen-3-yl)-N-methyl-1H-indazole-3-carboxamide]	7.33	6.70
CNC(=O)c1n[nH]c2cc(-c3cc(C)c(C(=O)NCC[C@@H](O)c4ccc(Cl)cc4)s3)ccc12 [Example 12, (R)-6-(5-((3-(4-chlorophenyl)-3-hydroxypropyl)carbamoyl)-4-methylthiophen-2-yl)-N-methyl-1H-indazole-3-carboxamide]	8.42	7.96
CNC(=O)c1n[nH]c2cc(-c3cc(C)c(C(=O)NCc4cc(OC(F)(F)F)ccc4F)s3)ccc12 [Example 10, 6-(5-((2-fluoro-5-(trifluoromethoxy)benzyl)carbamoyl)-4-methylthiophen-2-yl)-N-methyl-1H-indazole-3-carboxamide]	8.70	9.00
CNC(=O)c1n[nH]c2cc(-c3nc(C)c(C(=O)NCCC(C)c4ccccc4)n3C)ccc12 (stereo not shown) [Example 27, 6-(1,4-dimethyl-5-((3-phenylbutyl)carbamoyl)-1H-imidazol-2-yl)-N-methyl-1H-indazole-3-carboxamide]	6.66	6.33
CNC(=O)c1n[nH]c2cc(-c3csc(C(=O)NCC[C@H](O)c4ccc(Cl)cc4)c3)ccc12 [Example 4, (S)-6-(5-((3-(4-chlorophenyl)-3-hydroxypropyl)carbamoyl)thiophen-3-yl)-N-methyl-1H-indazole-3-carboxamide]	7.37	6.64
CC(C)NC(=O)c1n[nH]c2cc(-c3csc(C(=O)NCC[C@@H](O)c4ccc(Cl)cc4)c3)ccc12 [Example 5, (R)-6-(5-((3-(4-chlorophenyl)-3-hydroxypropyl)carbamoyl)thiophen-3-yl)-N-isopropyl-1H-indazole-3-carboxamide]	6.10	5.96
CC(C)NC(=O)c1n[nH]c2cc(-c3ccc(C(=O)NCC[C@H](O)c4ccc(Cl)cc4)s3)ccc12 [Example 9, (S)-6-(5-((3-(4-chlorophenyl)-3-hydroxypropyl)carbamoyl)thiophen-2-yl)-N-isopropyl-1H-indazole-3-carboxamide]		6.30
CNC(=O)c1n[nH]c2cc(-c3cc(C)c(C(=O)NCCC(C)c4ccccc4)s3)ccc12 (stereo not shown) [Example 11, N-methyl-6-(4-methyl-5-((3-phenylbutyl)carbamoyl)thiophen-2-yl)-1H-indazole-3-carboxamide]	8.74	8.70
CNC(=O)c1n[nH]c2cc(-c3cc(C(=O)NC(C)CCc4ccccc4)n(C)n3)ccc12 (racemic) [Example 36, N-methyl-6-(1-methyl-5-((4-phenylbutan-2-yl)carbamoyl)-1H-pyrazol-3-yl)-1H-indazole-3-carboxamide]		6.22
